Test results as given in the supplement of paper PMC10307832.

What was measured:
Assay in all cases: relative viability (nuclei count vs DMSO), 5 days (fraction); higher = more cells survive
SW 900 = test system: SW 900
How it was run: (§1)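 Nuclei were stained with Hoechst during a one-step fixation (final 0.05% Triton X-100, 1% formaldehyde, 1 ug/ml Hoechst) carried out 5 days after dosing, then counted on 4× images. The cells, lung cancer lines in 1536-well plates, had been dosed by pin tool the day after seeding with one drug alone or a fixed anchor-drug dose plus five library-drug doses (not always all listed) in √10 steps. Relative viability is the nuclei count in treated wells divided by that in vehicle wells, and each value is the median of duplicate plates.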

NCI-H1437 = test system: NCI-H1437
How it was run: as §1

NCI-H1395 = test system: NCI-H1395
How it was run: as §1

LU99A = test system: LU99A
How it was run: as §1

NCI-H2126 = test system: NCI-H2126
How it was run: as §1

NCI-H1755 = test system: NCI-H1755
How it was run: as §1

NCI-H358 = test system: NCI-H358
How it was run: as §1

BEN = test system: BEN
How it was run: as §1

HCC-15 = test system: HCC-15
How it was run: as §1

SW 1573 = test system: SW 1573
How it was run: as §1

EMC-BAC-2 = test system: EMC-BAC-2
How it was run: as §1

NCI-H1734 = test system: NCI-H1734
How it was run: as §1

NCI-H650 = test system: NCI-H650
How it was run: as §1

NCI-H3122 = test system: NCI-H3122
How it was run: as §1

NCI-H1563 = test system: NCI-H1563
How it was run: as §1

NCI-H2023 = test system: NCI-H2023
How it was run: as §1

NCI-H727 = test system: NCI-H727
How it was run: as §1

NCI-H1915 = test system: NCI-H1915
How it was run: as §1

HOP-62 = test system: HOP-62
How it was run: as §1

LC-2-ad = test system: LC-2-ad
How it was run: as §1

NCI-H2170 = test system: NCI-H2170
How it was run: as §1

Question: For Cc1cn(-c2cc(NC(=O)c3ccc(C)c(Nc4nccc(-c5cccnc5)n4)c3)cc(C(F)(F)F)c2)cn1 [Nilotinib] + Cc1nc(Nc2ncc(C(=O)Nc3c(C)cccc3Cl)s2)cc(N2CCN(CCO)CC2)n1 [Dasatinib] (partner 0.075 µM), which relative viability (SW 900; first compound 0.001 µM) is on record?
Answer: 0.538

Question: And the relative viability (SW 900; first compound 0.003162 µM)?
Answer: 0.617

Question: What about the relative viability (SW 900; first compound 0.01 µM) of the same compound?
Answer: 0.564

Question: What about the relative viability (SW 900; first compound 0.03162 µM) of the same compound?
Answer: 0.442

Question: And the relative viability (SW 900; first compound 0.1 µM)?
Answer: 0.315

Question: And the relative viability (NCI-H1437; first compound 0.001 µM)?
Answer: 0.366

Question: And the relative viability (NCI-H1437; first compound 0.003162 µM)?
Answer: 0.327

Question: And the relative viability (NCI-H1437; first compound 0.01 µM)?
Answer: 0.373

Question: And the relative viability (NCI-H1437; first compound 0.03162 µM)?
Answer: 0.296

Question: What about the relative viability (NCI-H1437; first compound 0.1 µM) of the same compound?
Answer: 0.164

Question: What about the relative viability (NCI-H1395; first compound 0.001 µM) of the same compound?
Answer: 0.445

Question: What about the relative viability (NCI-H1395; first compound 0.003162 µM) of the same compound?
Answer: 0.357

Question: What about the relative viability (NCI-H1395; first compound 0.01 µM) of the same compound?
Answer: 0.428

Question: And the relative viability (NCI-H1395; first compound 0.03162 µM)?
Answer: 0.357

Question: What about the relative viability (NCI-H1395; first compound 0.1 µM) of the same compound?
Answer: 0.333

Question: What about the relative viability (LU99A; first compound 0.001 µM) of the same compound?
Answer: 0.482

Question: What about the relative viability (LU99A; first compound 0.003162 µM) of the same compound?
Answer: 0.702

Question: And the relative viability (LU99A; first compound 0.01 µM)?
Answer: 0.557

Question: What about the relative viability (LU99A; first compound 0.03162 µM) of the same compound?
Answer: 0.359

Question: What about the relative viability (LU99A; first compound 0.1 µM) of the same compound?
Answer: 0.282

Question: And the relative viability (NCI-H2126; first compound 0.001 µM)?
Answer: 0.534

Question: And the relative viability (NCI-H2126; first compound 0.003162 µM)?
Answer: 0.522

Question: What about the relative viability (NCI-H2126; first compound 0.01 µM) of the same compound?
Answer: 0.513

Question: What about the relative viability (NCI-H2126; first compound 0.03162 µM) of the same compound?
Answer: 0.5

Question: And the relative viability (NCI-H2126; first compound 0.1 µM)?
Answer: 0.459

Question: What about the relative viability (NCI-H1755; first compound 0.001 µM) of the same compound?
Answer: 0.376

Question: What about the relative viability (NCI-H1755; first compound 0.003162 µM) of the same compound?
Answer: 0.381

Question: What about the relative viability (NCI-H1755; first compound 0.01 µM) of the same compound?
Answer: 0.404

Question: And the relative viability (NCI-H1755; first compound 0.03162 µM)?
Answer: 0.276

Question: What about the relative viability (NCI-H1755; first compound 0.1 µM) of the same compound?
Answer: 0.184

Question: And the relative viability (NCI-H358; first compound 0.001 µM)?
Answer: 0.177

Question: What about the relative viability (NCI-H358; first compound 0.003162 µM) of the same compound?
Answer: 0.153

Question: And the relative viability (NCI-H358; first compound 0.01 µM)?
Answer: 0.18

Question: And the relative viability (NCI-H358; first compound 0.03162 µM)?
Answer: 0.178

Question: What about the relative viability (NCI-H358; first compound 0.1 µM) of the same compound?
Answer: 0.157

Question: What about the relative viability (BEN; first compound 0.001 µM) of the same compound?
Answer: 0.336

Question: And the relative viability (BEN; first compound 0.003162 µM)?
Answer: 0.338

Question: What about the relative viability (BEN; first compound 0.01 µM) of the same compound?
Answer: 0.278

Question: What about the relative viability (BEN; first compound 0.03162 µM) of the same compound?
Answer: 0.322

Question: What about the relative viability (BEN; first compound 0.1 µM) of the same compound?
Answer: 0.221

Question: And the relative viability (HCC-15; first compound 0.001 µM)?
Answer: 0.607

Question: What about the relative viability (HCC-15; first compound 0.003162 µM) of the same compound?
Answer: 0.689

Question: What about the relative viability (HCC-15; first compound 0.01 µM) of the same compound?
Answer: 0.665

Question: And the relative viability (HCC-15; first compound 0.03162 µM)?
Answer: 0.456

Question: And the relative viability (HCC-15; first compound 0.1 µM)?
Answer: 0.433

Question: What about the relative viability (SW 1573; first compound 0.001 µM) of the same compound?
Answer: 0.398

Question: What about the relative viability (SW 1573; first compound 0.003162 µM) of the same compound?
Answer: 0.455

Question: What about the relative viability (SW 1573; first compound 0.01 µM) of the same compound?
Answer: 0.749

Question: And the relative viability (SW 1573; first compound 0.03162 µM)?
Answer: 0.234

Question: And the relative viability (SW 1573; first compound 0.1 µM)?
Answer: 0.261

Question: What about the relative viability (EMC-BAC-2; first compound 0.001 µM) of the same compound?
Answer: 0.308

Question: What about the relative viability (EMC-BAC-2; first compound 0.003162 µM) of the same compound?
Answer: 0.308

Question: What about the relative viability (EMC-BAC-2; first compound 0.01 µM) of the same compound?
Answer: 0.325

Question: And the relative viability (EMC-BAC-2; first compound 0.03162 µM)?
Answer: 0.27

Question: And the relative viability (EMC-BAC-2; first compound 0.1 µM)?
Answer: 0.296

Question: And the relative viability (NCI-H1734; first compound 0.001 µM)?
Answer: 0.355

Question: What about the relative viability (NCI-H1734; first compound 0.003162 µM) of the same compound?
Answer: 0.477

Question: What about the relative viability (NCI-H1734; first compound 0.01 µM) of the same compound?
Answer: 0.506

Question: What about the relative viability (NCI-H1734; first compound 0.03162 µM) of the same compound?
Answer: 0.345

Question: And the relative viability (NCI-H1734; first compound 0.1 µM)?
Answer: 0.304

Question: What about the relative viability (NCI-H650; first compound 0.001 µM) of the same compound?
Answer: 0.462

Question: What about the relative viability (NCI-H650; first compound 0.003162 µM) of the same compound?
Answer: 0.479

Question: What about the relative viability (NCI-H650; first compound 0.01 µM) of the same compound?
Answer: 0.49

Question: What about the relative viability (NCI-H650; first compound 0.03162 µM) of the same compound?
Answer: 0.408

Question: What about the relative viability (NCI-H650; first compound 0.1 µM) of the same compound?
Answer: 0.379

Question: What about the relative viability (NCI-H3122; first compound 0.001 µM) of the same compound?
Answer: 0.719

Question: What about the relative viability (NCI-H3122; first compound 0.003162 µM) of the same compound?
Answer: 0.91

Question: And the relative viability (NCI-H3122; first compound 0.01 µM)?
Answer: 0.982

Question: And the relative viability (NCI-H3122; first compound 0.03162 µM)?
Answer: 0.267

Question: What about the relative viability (NCI-H3122; first compound 0.1 µM) of the same compound?
Answer: 0.129

Question: And the relative viability (NCI-H1563; first compound 0.001 µM)?
Answer: 0.447

Question: What about the relative viability (NCI-H1563; first compound 0.003162 µM) of the same compound?
Answer: 0.447

Question: And the relative viability (NCI-H1563; first compound 0.01 µM)?
Answer: 0.442

Question: What about the relative viability (NCI-H1563; first compound 0.03162 µM) of the same compound?
Answer: 0.492

Question: What about the relative viability (NCI-H1563; first compound 0.1 µM) of the same compound?
Answer: 0.329

Question: And the relative viability (NCI-H2023; first compound 0.001 µM)?
Answer: 0.471

Question: And the relative viability (NCI-H2023; first compound 0.003162 µM)?
Answer: 0.569

Question: And the relative viability (NCI-H2023; first compound 0.01 µM)?
Answer: 0.828

Question: What about the relative viability (NCI-H2023; first compound 0.03162 µM) of the same compound?
Answer: 0.418

Question: And the relative viability (NCI-H2023; first compound 0.1 µM)?
Answer: 0.405

Question: What about the relative viability (NCI-H727; first compound 0.001 µM) of the same compound?
Answer: 0.415

Question: And the relative viability (NCI-H727; first compound 0.003162 µM)?
Answer: 0.339

Question: What about the relative viability (NCI-H727; first compound 0.01 µM) of the same compound?
Answer: 0.425

Question: What about the relative viability (NCI-H727; first compound 0.03162 µM) of the same compound?
Answer: 0.41

Question: What about the relative viability (NCI-H727; first compound 0.1 µM) of the same compound?
Answer: 0.302

Question: And the relative viability (NCI-H1915; first compound 0.001 µM)?
Answer: 0.324

Question: What about the relative viability (NCI-H1915; first compound 0.003162 µM) of the same compound?
Answer: 0.314

Question: And the relative viability (NCI-H1915; first compound 0.01 µM)?
Answer: 0.354

Question: And the relative viability (NCI-H1915; first compound 0.03162 µM)?
Answer: 0.27

Question: What about the relative viability (NCI-H1915; first compound 0.1 µM) of the same compound?
Answer: 0.141

Question: And the relative viability (HOP-62; first compound 0.001 µM)?
Answer: 0.603

Question: What about the relative viability (HOP-62; first compound 0.003162 µM) of the same compound?
Answer: 0.67

Question: And the relative viability (HOP-62; first compound 0.01 µM)?
Answer: 0.66

Question: What about the relative viability (HOP-62; first compound 0.03162 µM) of the same compound?
Answer: 0.491

Question: What about the relative viability (HOP-62; first compound 0.1 µM) of the same compound?
Answer: 0.476

Question: What about the relative viability (LC-2-ad; first compound 0.001 µM) of the same compound?
Answer: 0.512

Question: What about the relative viability (LC-2-ad; first compound 0.003162 µM) of the same compound?
Answer: 0.701

Question: What about the relative viability (LC-2-ad; first compound 0.01 µM) of the same compound?
Answer: 0.574

Question: And the relative viability (LC-2-ad; first compound 0.03162 µM)?
Answer: 0.43

Question: And the relative viability (LC-2-ad; first compound 0.1 µM)?
Answer: 0.387

Question: What about the relative viability (NCI-H2170; first compound 0.001 µM) of the same compound?
Answer: 0.591

Question: And the relative viability (NCI-H2170; first compound 0.003162 µM)?
Answer: 0.576

Question: And the relative viability (NCI-H2170; first compound 0.01 µM)?
Answer: 0.736

Question: And the relative viability (NCI-H2170; first compound 0.03162 µM)?
Answer: 0.465

Question: What about the relative viability (NCI-H2170; first compound 0.1 µM) of the same compound?
Answer: 0.406
